According to patent publication US10730863B2, “Bridged bicyclic compounds as farnesoid X receptor modulators” (BRISTOL-MYERS SQUIBB COMPANY, priority 2017, dated 2020):
One block for each molecule: values may come before it.

Key:
Cyp7a1 = test: Acute mouse PK/PD: Cyp7a1 gene expression in liver; format: in vivo; conditions: for Cyp7a1 (fold change@ 6 h relative to Vehicle): mouse PD
Procedure: (§1) In Vivo Testing Example: Acute Mouse PK/PD
(§2) Male, C57BL6/NTac mice, weighing 25-28 g, are purchased from Taconic Labs (Hudson, N.Y.) and maintained on Teklad Global 18% Protein Rodent Diet (Harlan Laboratories). After 1 week acclimation, mice are sorted into groups based upon body weight. Mice are administered a single oral dose of vehicle or experimental compound. Systemic compound exposure is evaluated in plasma derived from blood collected via the submandibular vein at 1 hour post-dose, and at study termination (6 h). At study termination, the animals are euthanized and rapidly dissected. The medial lobe of the liver is divided, with one half being homogenized and analyzed for compound exposure, and the other half saved in RNAlater (Thermo-Fisher Scientific). The ileum is also dissected and preserved in RNAlater. Tissue samples in RNAlater are homogenized with MP Biomedicals' beads. RNA is extracted using the MagMax-96 Total RNA Isolation kit (Thermo-Fisher Scientific) according to the manufacturer's protocol. RNA Concentration is determined with the Nano-Drop 8000 Spectrophotometer (Thermo Fisher). Reverse transcription is done with Invitrogen's SuperScript® VILO cDNA Synthesis Kit according to the manufacturer's protocol. Real time PCR is done with Applied Biosystems' Taqman PCR master mixture according to the manufacturer's protocol. All primers are purchased from Thermo-Fisher Scientific. Mouse genes analyzed include Nr0b2 (which encodes the small heterodimer partner, SHP), Abcb11 (which encodes the bile salt excretion pump, BSEP), Cyp7a1, & Cyp8b1 in liver, and Fgf15, Fabp6 (which encodes ileal bile acid binding protein, I-BABP), Slc51a (which encodes organic solute transporter alpha subunit, OSTA), and Slc51b (which encodes organic solute transporter beta subunit, OSTB) in the ileum. The statistical significant changes in FGF15 gene expression are expressed as fold increase and CYP7A1 expression as a percent reduction relative to vehicle control.

Fgf15 = test: Acute mouse PK/PD: Fgf15 gene expression in ileum; format: in vivo; conditions: for Fgf15 (fold change@ 6 h relative to Vehicle): mouse PD
Procedure: as §1, §2

FXR [1] = target: T1, FXR (Homo sapiens (Human), UniProt Q96RI1); test: FXR EC50 (FXR agonist activity reported with each example); format: cell-based
T1 sequence (Q96RI1 262-486): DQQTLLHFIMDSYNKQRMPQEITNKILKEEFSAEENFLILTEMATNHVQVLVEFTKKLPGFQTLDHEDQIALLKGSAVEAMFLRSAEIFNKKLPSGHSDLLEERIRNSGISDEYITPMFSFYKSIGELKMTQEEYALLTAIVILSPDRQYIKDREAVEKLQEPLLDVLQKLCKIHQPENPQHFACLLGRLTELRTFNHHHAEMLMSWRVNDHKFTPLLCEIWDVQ

Cypa7a1, Ffg15 = test: Mouse in vivo (Cyp7a1 / Fgf15 response); conditions: 3 mg/kg, @ 6 h
FXR [2] = target: T1, FXR; test: transient human FXR/Gal4-luciferase reporter assay; format: cell-based; conditions: Gal4-hFXR LBD fusion in HEK293 reporter cells; relative to 8 μM GW-4064
Procedure: The exemplified compounds of the present invention were tested in the transient human FXR/Gal4-luciferase reporter assay, and assay results were described in the EXAMPLES section hereinbefore.
A Gal4-hFXR fusion construct reporter system was used as the primary assay to characterize compound activity. A construct including 5 copies of the Gal4 promoter response element upstream of a firefly luciferase reporter cDNA was stably expressed in HEK293 cells. This reporter cell line was maintained in Dulbecco's Modified Eagle's medium (DMEM; Gibco) supplemented with 1% penicillin-streptomycin (P/S) solution, 500 μg/ml Zeocin and 10% charcoal/dextran-treated fetal bovine serum (cs-FBS) at 37° C. in a humidified 5% CO2 atmosphere. Another plasmid was constructed in which the human cytomegalovirus promoter in the pcDNA3.1 vector directs the expression of the cDNA encoding a fusion protein comprised of the DNA binding domain from the Gal4 transcription factor fused to the ligand binding domain from human FXR.
The day prior to transfection, the reporter cells in culture are detached from the plate with trypsin and plated into a T75 flask at a sufficient density to achieve approximately 90% confluence the next morning. The transfection reagents are prepared by separately diluting 25 μg of the pcDNA3.1-Gal4-FXR plasmid into 1.87 mL of Opti-MEM (Thermo-Fisher), and 40 μL of Lipofectamine 2000 (Thermo-Fisher) into 1.87 mL of Opti-MEM, and then adding the diluted DNA solution into the diluted Lipofectamine 2000 solution and incubating at room temperature for 15-20 minutes. The mixture is further diluted with 10 mL of a solution comprised of DMEM, 10% cs-FBS, and 1% P/S immediately prior to transferring to the cells. The maintenance culture media is aspirated from the cells and the final transfection mixture is added before the cells are incubated overnight at 37° C. in a humidified 5% CO2 atmosphere. This protocol can be scaled up, and the transiently transfected cells can be cryopreserved in an assay-ready format.
For compound testing, 100 nL of the compounds (serial dilutions in DMSO) are dispensed with an Echo acoustic dispenser (Labcyte) into the wells of a Corning/Costar clear bottom 384-well white plate. The transfected cells are harvested, counted, and diluted such that 10-25,000 cells in 25 μL are plated into each well of the 384-well compound assay plate. The compound-treated cells are incubated overnight at 37° C. in a humidified 5% CO2 atmosphere. The next morning 25 μL of Steady-Glo (Promega) are added to each well of the plate, the mixture is incubated for 15 min. with shaking, and luminescence is measured on an Envision (Perkin Elmer) plate reader. Background counts from cells treated with DMSO alone are subtracted from all raw counts, and the corrected values are converted to a percentage of the control response attained with 8 μM GW-4064.

[3] = 6-week trial, T2DM patients with NAFLD; cited from earlier work
[4] = 72-week trial, patients with NASH, liver biopsies; cited from earlier work

Compound: O=C(O)c1cccc(-c2noc(C34CCC(OCc5c(-c6c(Cl)cccc6Cl)noc5C5CC5)(CC3)CC4)n2)c1 [Example 27]
Cyp7a1 (fold change@ 6 h relative to Vehicle) (Cyp7a1; dose 30 mg/kg): 0.10 fold change
Fgf15 (fold change@ 6 h relative to Vehicle) (Fgf15; dose 30 mg/kg): 2.8 fold change

Compound: O=C(O)c1cc(C(F)(F)F)c2cc(OCC34CCC(OCc5c(-c6c(Cl)cncc6Cl)noc5C5CC5)(CC3)CC4)ccc2n1 [Example 101, 6-((4-((5-cyclopropyl-3-(3,5-dichloropyridin-4-yl)isoxazol-4-yl)methoxy)bicyclo[2.2.2]octan-1-yl)methoxy)-4-(trifluoromethyl)quinoline-2-carboxylic acid]
EC50 (FXR [1]): 8 nM
Cyp7a1 (fold change@ 6 h relative to Vehicle) (Cyp7a1; dose 3 mg/kg): 0.06 fold change
Fgf15 (fold change@ 6 h relative to Vehicle) (Fgf15; dose 3 mg/kg): 21 fold change

EC50 (FXR [1]): 28 nM
Compound: CN1CCN(c2nc(C(=O)O)cc3ccc(C#CC45CCC(OCc6c(-c7c(Cl)cncc7Cl)noc6C6CC6)(CC4)CC5)cc23)CC1 [Example 519, 7-((4-((5-cyclopropyl-3-(3,5-dichloropyridin-4-yl)isoxazol-4-yl)methoxy)bicyclo[2.2.2]octan-1-yl)ethynyl)-1-(4-methylpiperazin-1-yl)isoquinoline-3-carboxylic acid]
Cypa7a1 (Cypa7a1, Ffg15): −92%
Ffg15 (Cypa7a1, Ffg15): +1.4 ×

Compound: O=C(O)Cc1ccc(/C=C/C23CCC(OCc4c(-c5c(Cl)cncc5Cl)noc4C4CC4)(CC2)CC3)c(C(F)(F)F)c1 [Example 621]
EC50 (FXR [2]): 43 nM

Compound: O=C(O)COCc1ccc(/C=C/C23CCC(OCc4c(-c5c(Cl)cncc5Cl)noc4C4CC4)(CC2)CC3)cc1 [Example 622]
EC50 (FXR [2]): 176 nM

Compound: O=C(O)CCc1cccc(/C=C/C23CCC(OCc4c(-c5c(Cl)cncc5Cl)noc4C4CC4)(CC2)CC3)c1 [Example 623]
EC50 (FXR [2]): 843 nM

Compound: O=C(O)CCc1cc(/C=C/C23CCC(OCc4c(-c5c(Cl)cncc5Cl)noc4C4CC4)(CC2)CC3)ccc1OCC(F)F [Example 624]
EC50 (FXR [2]): 438 nM

Compound: O=C(O)c1ccc(/C=C/C23CCC(OCc4c(-c5c(Cl)cncc5Cl)noc4C4CC4)(CC2)CC3)cc1 [Example 625]
EC50 (FXR [2]): 350 nM

Compound: O=C(O)c1cc(/C=C/C23CCC(OCc4c(-c5c(Cl)cncc5Cl)noc4C4CC4)(CC2)CC3)ccn1 [Example 626]
EC50 (FXR [2]): 879 nM

Compound: O=C(O)c1cncc(/C=C/C23CCC(OCc4c(-c5c(Cl)cncc5Cl)noc4C4CC4)(CC2)CC3)c1 [Example 627]
EC50 (FXR [2]): 1150 nM

Compound: O=C(O)c1csc(-c2ccc(/C=C/C34CCC(OCc5c(-c6c(Cl)cncc6Cl)noc5C5CC5)(CC3)CC4)cc2)n1 [Example 628]
EC50 (FXR [2]): 72 nM

Compound: CN1CCN(c2nc(C(=O)O)cc3ccc(/C=C/C45CCC(OCc6c(-c7c(Cl)cncc7Cl)noc6C6CC6)(CC4)CC5)cc23)CC1 [Example 629]
EC50 (FXR [2]): 35 nM
Mouse in vivo Cyp7a1 (printed Cypa7a1), change relative to vehicle (Cyp7a1; mouse, 3 mg/kg single oral dose, @ 6 h, liver): −97%
Mouse in vivo Fgf15 (printed Ffg15), fold increase relative to vehicle (Fgf15; mouse, 3 mg/kg single oral dose, @ 6 h, ileum): +7.1 x

Compound: CC[C@H]1[C@@H](O)[C@@H]2[C@H](CC[C@]3(C)[C@@H]([C@H](C)CCC(=O)O)CC[C@@H]23)[C@@]2(C)CC[C@@H](O)C[C@@H]12 [OCA, obeticholic acid]
body weight [3]: reduced
insulin sensitivity [3]: statistically significantly improved
hepatic steatosis, lobular inflammation, hepatocyte ballooning, and fibrosis [4]: statistically significantly improved
